Results: patent publication US20260263357A1, “PHASE SHIFTING INTRAVITREAL TAMPONADE” (Avant Sciences, Inc., priority 2023, published 2026)
Like-named read-outs stand apart in the source and are kept apart here.

Experiments:
[1] = cited from earlier work
[2] = cited from earlier work; remark: listed apart in the source
[3] = Table 5; cited from earlier work
[4] = Experimental ultrasound absorbance (amplitude attenuation coefficient); assay type: physicochemical
Source text: In some embodiments, the compounds of Structure 1 are capable of absorbing ultrasonic wave energy. The capacity of a given chemical to convert applied ultrasound from vibrational energy into heat is termed its ultrasonic absorbance, which itself varies depending upon the initial temperature and the frequency of the applied ultrasound. Additionally, the native vitreous within biological tissues approximates that of water, which itself has an ultrasonic absorption profile; thus, there is a baseline transmission of acoustic energy through ocular tissues, and this characteristic is routinely leveraged when it comes to various forms of imaging and therapy (Southern, Australas J Ultrasound Med. 2009 February; 12 (1): 32-37). In some embodiments, a compound that can preferentially absorb ultrasound more readily than that of water has the capacity to disproportionately absorb applied ultrasonic energy versus that of vitreous within the vitreous cavity. As such absorption would lead to local increase in temperature, thus facilitate the phase shift to a gaseous state.
With reference to Table 3, a compound with a larger amplitude attenuation coefficient absorbs ultrasound more than a compound that has a lower amplitude attenuation coefficient. It is clear that each of the compounds of Structure 1 (as shown in Table 3) is orders of magnitude more likely to absorb ultrasonic energy than water/vitreous. […] Indeed, it is notable that water, the least absorptive compound shown, is not only clearly symmetric on both a rotational axis and the mirror plane, but also has some of the strongest hydrogen bond forces in all of chemistry, allowing it to “pack itself together” much more readily than the other compounds on the list.

[5] = system: New Zealand white rabbits; test: Intraocular pressure measurements after intravitreal injection; assay type: in vivo, rabbit
Source text: (§1) Additionally, to address concerns about biological toxicity of these compounds, intraocular pressure measurements and both scotopic a-wave, b-wave, and photopic b-wave ERGs were done on all 6 rabbits in the study, without any statistically notable adverse signals (FIG. 2-5).
Additionally, to address concerns about biological toxicity of these compounds, intraocular pressure measurements were done on all 4 rabbits in the study, without any statistically notable adverse signals.

[6] = system: New Zealand white rabbits; test: Fundus imaging of tamponade bubble after injection into rabbit vitreous cavity (phase shift and removal); assay type: in vivo; conditions: 8 microliters injected into rabbit vitreous cavity
Method: The biological safety of a compound of Structure 1 is tested within an animal model. In particular, 2,2,2-Trifluoroethyl 1,1,2,2-tetrafluoroethyl ether was tested within a New Zealand white rabbits, an animal model in line with previous retinal tamponade studies (Santos et al., Retina, 33 (1): p 120-127 (1991)).
(§2) FIG. 1A includes a set of control retinal fundus images (near-infrared images IR and corresponding color images MC) for which balanced salt solution BSS (effectively water) was injected into a rabbit vitreous cavity. […] In other words, 2,2,2-Trifluoroethyl 1,1,2,2-tetrafluoroethyl ether was empirically determined to successfully phase shift under biological conditions at around 1 week post placement, and then subsequently carried out of the body over the next 2 months. […]
as §2, with “6A” for “1A”, “1,1,2,3,3,3-Hexafluoropropyl difluoromethyl” for “2,2,2-Trifluoroethyl 1,1,2,2-tetrafluoroethyl”, “1-3 days” for “1 week”, “subsequently fully” for “subsequently”, “by Day 8.” for “over the next 2 months.”

[7] = system: New Zealand white rabbits; test: Scotopic a-wave, b-wave and photopic b-wave ERGs after intravitreal injection; assay type: in vivo, rabbit; conditions: baseline and 2 months
Source text: as §1

[8] = Table 2, selected fluorinated ethers
[9] = Table 1, selected fluorinated alkanes
[10] = 6 rabbits, up to about two months after injection, FIG. 2
[11] = 4 rabbits, up to about 1 month after injection, FIG. 7

Row | Compound | Flammable? [1, 8] | Flammable? [1, 9] | Boiling Point [2, 8] [°C] | Density [3] [g/mL] | Boiling Point ([2]; Table 5) [°C] | further results
1 | CC(F)(F)OCC(F)(F)F [1,1-Difluoroethyl 2,2,2-trifluoroethyl ether] | YES |  |  |  |  | 
2 | FCC(F)(F)C(F)F [1,1,2,2,3-Pentafluropropane] |  | YES |  |  |  | Boiling Point [2, 9]: 26 °C
3 | FCOCF [Bis(fluoromethyl) ether] | YES |  | 34 |  |  | 
4 | COC(F)(F)C(F)F [tetrafluoroethyl methyl ether] | YES |  | 37 |  |  | 
5 | FC(C(F)(F)F)C(F)(F)OCC(F)(F)C(F)(F)C(F)(F)F (centres unmarked) [1,1,1,2,2,3,3-Heptafluoro-4-(1,1,2,3,3,3-hexafluoropropoxy)butane, reference compound] |  |  |  | 1.63 | 102 | 
6 | COC(F)(F)C(F)(F)C(F)(F)F [Heptafluoropropyl methyl ether] | No |  | 34 |  |  | 
7 | FC(F)C(F)(F)OCC(F)(F)F [2,2,2-Trifluoroethyl 1,1,2,2-tetrafluoroethyl ether] | No |  | 56 | 1.487 | 56.7 | Amplitude Attenuation Coefficient [4]: 2.65 db/cm-MHz; Intraocular pressure compared to control (Balanced Salt Solution) [5, 10]: not significantly different; Intraocular pressure relative to normal physiologic range [5, 10]: nor were their intraocular pressures outside of normal physiologic range throughout the study; Time over which agent is carried out of the body after phase shift ([6]; fundus images to D56): ~2 months; Scotopic a-wave ERG amplitude (rod and cone cells, dark-adapted) vs control (Balanced Salt Solution) ([7]; FIG. 3): no significant difference; Scotopic b-wave ERG amplitude (bipolar cells, dark-adapted) vs control (Balanced Salt Solution) ([7]; FIG. 4): no significant difference; Photopic b-wave ERG amplitude (bipolar cells, light-adapted) vs control (Balanced Salt Solution) ([7]; FIG. 5): no significant difference
8 | FC(F)C(F)(F)C(F)F [1,1,2,2,3,3-Hexafluoropropane] |  | No |  |  |  | Boiling Point [2, 9]: 5 °C
9 | COC(F)C(F)(F)F (centres unmarked) [1,2,2,2-Tetrafluoroethyl methyl ether] | YES |  |  |  |  | 
10 | CCOC(F)(F)C(F)(F)F [Ethyl pentafluoroethyl ether] | YES |  | 30 |  |  | 
11 | FC(F)(F)C(F)(F)C(F)(F)F [Perfluoropropane] |  | No |  |  |  | 
12 | FC(F)OCC(F)(F)C(F)(F)F [Difluoromethyl 2,2,3,3,3-pentafluoropropyl ether] | No |  | 46 | 1.46 | 46 | Amplitude Attenuation Coefficient [4]: 0.57 db/cm-MHz
13 | FC(F)OC(F)(F)C(F)C(F)(F)F (centres unmarked) [1,1,2,3,3,3-Hexafluoropropyl difluoromethyl ether] | No |  | 47 | 1.5 | 47 | Amplitude Attenuation Coefficient [4]: 3.35 db/cm-MHz; Intraocular pressure compared to control (Balanced Salt Solution) [5, 11]: not significantly different; Intraocular pressure relative to normal physiologic range [5, 11]: nor were their intraocular pressures outside of normal physiologic range throughout the study; Day by which agent is fully carried out of the body ([6]; fundus images to D30): ≤ 8 days
14 | O [Water, reference compound] |  |  |  |  |  | Amplitude Attenuation Coefficient [4]: 0.002 db/cm-MHz
15 | FC(OC(F)(F)C(F)(F)C(F)(F)F)C(F)(F)F (centres unmarked) [Heptafluoropropyl 1,2,2,2-tetrafluoroethyl ether] | No |  | 40 | 1.538 | 40 | Amplitude Attenuation Coefficient [4]: 3.58 db/cm-MHz
16 | FCCC(F)F [1,1,3-Trifluoropropane] |  | YES |  |  |  | 
17 | FC(F)C(F)(F)C(F)(F)F [1,1,1,2,2,3,3-Heptafluoropropane] |  | No |  |  |  | Boiling Point [2, 9]: −16 °C
18 | FC(F)C(F)(F)COCC(F)(F)C(F)F [1,1,2,2-Tetrafluoro-3-(2,2,3,3-tetrafluoropropoxy)propane, reference compound] |  |  |  | 1.627 | 35 | 
19 | FCCC(F)(F)F [1,1,1,3-Tetrafluoropropane] |  | YES |  |  |  | 
